{"source": "paper PMC3940079", "about": "(International Journal for Parasitology: Drugs and Drug …, 2013)", "key": {"[1]": {"target": "T1, P2 aminopurine transporter (TbAT1) (Trypanosoma brucei, UniProt Q9Y0I0)", "T1 sequence (Q9Y0I0 1-463)": "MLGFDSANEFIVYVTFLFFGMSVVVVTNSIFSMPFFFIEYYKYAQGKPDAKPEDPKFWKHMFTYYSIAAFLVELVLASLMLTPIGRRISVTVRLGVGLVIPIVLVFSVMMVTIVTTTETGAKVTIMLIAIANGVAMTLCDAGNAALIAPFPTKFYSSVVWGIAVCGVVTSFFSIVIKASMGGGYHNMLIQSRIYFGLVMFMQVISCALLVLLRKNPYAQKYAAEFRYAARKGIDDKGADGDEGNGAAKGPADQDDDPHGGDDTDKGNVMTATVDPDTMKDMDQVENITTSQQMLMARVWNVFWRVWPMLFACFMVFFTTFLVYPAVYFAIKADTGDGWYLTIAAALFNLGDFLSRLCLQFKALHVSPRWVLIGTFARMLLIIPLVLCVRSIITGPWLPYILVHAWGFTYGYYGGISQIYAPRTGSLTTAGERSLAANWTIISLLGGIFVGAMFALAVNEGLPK", "experiment": "inhibition of […] [3H]-adenosine uptake", "format": "cell-based"}, "[2]": {"target": "H3 nucleobase transporter", "experiment": "inhibition of […] [3H]-hypoxanthine uptake in bloodstream-form trypanosomes", "format": "cell-based, Trypanosoma brucei brucei"}, "[3]": {"target": "H2 nucleobase transporter", "experiment": "inhibition of […] [3H]-hypoxanthine uptake in bloodstream-form trypanosomes", "format": "cell-based, Trypanosoma brucei brucei"}}}
{"smiles": "Nc1ncnc2n[nH]cc12", "note": "[aminopurinol]", "values": [{"measurement": "Ki", "setting": "[1]", "value": "75.3 ± 5.7", "unit": "µM"}, {"measurement": "Ki", "setting": "[2]", "value": "105 ± 24", "unit": "µM"}, {"measurement": "Ki", "setting": "[3]", "value": "230 ± 35", "unit": "µM"}]}
